Results from article PMC9814838, “The orphan nuclear receptor Nurr1 is responsive to non-steroidal anti-inflammatory drugs” (Communications Chemistry, 2020).

Columns and labels:
Assay type in all cases: cell-based
Nurr1 = molecular target: T1, Nurr1 (Homo sapiens, UniProt P43354); test: Gal4-Nurr1 hybrid reporter gene assay in HEK293T cells; details: primary screen, n ≥ 2, ^# not significant vs VP16 control
T1 construct: Nurr1 (uniprot entry: hNURR1–P43354, residues 360–598); expressed in transfected cells; host or cells: HEK293T
T1 sequence (P43354 360-598): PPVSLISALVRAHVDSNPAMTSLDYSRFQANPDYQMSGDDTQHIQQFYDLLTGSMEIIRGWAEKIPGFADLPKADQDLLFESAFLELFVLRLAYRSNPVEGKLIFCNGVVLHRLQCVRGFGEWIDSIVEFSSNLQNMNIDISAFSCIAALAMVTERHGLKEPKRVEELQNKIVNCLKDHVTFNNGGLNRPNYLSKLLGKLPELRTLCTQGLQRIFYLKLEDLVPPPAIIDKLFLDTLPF

Nur77 = molecular target: T2, Nur77 (Homo sapiens, UniProt P22736); test: Gal4-Nur77 hybrid reporter gene assay in HEK293T cells; details: for Nur77 activity 10μM (mean fold activation) / Nur77 activity 30μM (mean fold activation): primary screen, n ≥ 2, ^# not significant vs VP16 control
T2 construct: Nur77 (uniprot entry: hNUR77–P22736, residues 358–598); expressed in transfected cells; host or cells: HEK293T
T2 sequence (P22736 358-598): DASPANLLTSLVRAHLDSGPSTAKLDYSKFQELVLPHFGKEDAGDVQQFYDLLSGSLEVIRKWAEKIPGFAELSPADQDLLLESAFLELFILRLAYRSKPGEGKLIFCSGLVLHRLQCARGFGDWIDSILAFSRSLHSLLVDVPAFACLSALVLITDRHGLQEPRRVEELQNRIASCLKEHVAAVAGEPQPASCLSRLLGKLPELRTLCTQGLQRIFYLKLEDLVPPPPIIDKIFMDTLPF

NOR1 = molecular target: T3, NOR1 (Homo sapiens, UniProt Q92570); test: Gal4-NOR1 hybrid reporter gene assay in HEK293T cells; details: for Nor1 activity 10μM (mean fold activation) / Nor1 activity 30μM (mean fold activation): primary screen, n ≥ 2, ^# not significant vs VP16 control
T3 construct: NOR1 (isoform alpha; uniprot entry: hNOR1–Q92570-1, residues 393–626); expressed in transfected cells; host or cells: HEK293T
T3 sequence (Q92570 393-626): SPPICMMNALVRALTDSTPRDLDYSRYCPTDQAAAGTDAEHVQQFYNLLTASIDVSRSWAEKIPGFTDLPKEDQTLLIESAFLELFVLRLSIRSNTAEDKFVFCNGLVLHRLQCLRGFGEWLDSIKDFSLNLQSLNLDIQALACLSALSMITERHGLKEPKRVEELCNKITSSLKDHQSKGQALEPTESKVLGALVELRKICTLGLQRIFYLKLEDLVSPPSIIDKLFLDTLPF

[1] = compared to 0.1% DMSO, mean ± SD

SMILES	Nurr1 activity 10μM (mean fold activation) (Nurr1)	Nurr1 activity 30μM (mean fold activation) (Nurr1)	Nur77 activity 10μM (mean fold activation) (Nur77)	Nur77 activity 30μM (mean fold activation) (Nur77)	Nor1 activity 10μM (mean fold activation) (NOR1)	Nor1 activity 30μM (mean fold activation) (NOR1)	Nur77 min./max. activation (Nur77; [1])	IC50 (NOR1)	NOR1 min./max. activation (NOR1; [1])
CCCCC1C(=O)N(c2ccccc2)N(c2ccccc2)C1=O [phenylbutazone]	0.94 fold	1.04 fold	0.83 fold	0.81 fold	0.94 fold	1.02 fold			
CC(C(=O)O)c1cccc(C(=O)c2ccccc2)c1 (stereo not drawn) [ketoprofen]	1.00 fold	0.94 fold	1.04 fold	0.88 fold	1.10 fold	0.96 fold			
CC(C(=O)O)c1ccc2c(c1)CC(=O)c1ccccc1S2 (stereo not drawn) [zaltoprofen]	0.97 fold	0.94 fold	0.80 fold	0.84 fold	0.89 fold	0.84 fold			
CC(C(=O)O)c1ccc(-c2ccccc2)c(F)c1 (stereo not drawn) [flurbiprofen]	1.25 fold	1.05 fold	0.93 fold	0.96 fold	0.98 fold	0.91 fold			
CC(C(=O)O)c1ccc2c(c1)[nH]c1ccc(Cl)cc12 (stereo not drawn) [carprofen]	1.10 fold	1.19 fold	1.08 fold	0.95 fold	1.17 fold	0.99 fold			
O=C(O)Cc1ccccc1Nc1c(Cl)cccc1Cl [diclofenac]	1.19 fold	toxic	0.94 fold	toxic	1.11 fold	toxic			
O=C(OCCOCCO)c1ccccc1Nc1cccc(C(F)(F)F)c1 [etofenamate]	0.97 fold	toxic	0.84 fold	toxic	1.07 fold	toxic			
O=C(O)c1ccccc1Nc1cccc(C(F)(F)F)c1 [flufenamic acid]	1.14 fold	toxic	0.99 fold	toxic	1.36 fold	toxic			
CCc1cccc2c3c([nH]c12)C(CC)(CC(=O)O)OCC3 (stereo not drawn) [etodolac]	1.06 fold	0.93 fold	0.85 fold	0.90 fold	0.95 fold	0.91 fold			
COc1ccc2cc([C@H](C)C(=O)O)ccc2c1 [naproxen]	1.14 fold	1.15 fold	0.99 fold	1.07 fold	1.09 fold	1.09 fold			
CC(C)Cc1ccc(C(C)C(=O)O)cc1 (stereo not drawn) [ibuprofen]	1.02 fold	0.90 fold	0.99 fold	0.89 fold	0.95 fold	0.96 fold			
Cc1c(Cl)cccc1Nc1ccccc1C(=O)O [tolfenamic acid]	1.18 fold	toxic	toxic	toxic	toxic	toxic			
CS(=O)(=O)c1ccc(C2=C(c3ccccc3)C(=O)OC2)cc1 [rofecoxib]	1.02 fold	0.92 fold	0.93 fold	0.91 fold	0.95 fold	1.01 fold			
Cc1cc(NC(=O)C2=C(O)c3ccccc3S(=O)(=O)N2C)no1 [isoxicam]	0.98 fold	0.90 fold	0.96 fold	0.80 fold	1.02 fold	0.87 fold			
CS(=O)(=O)Nc1ccc([N+](=O)[O-])cc1Oc1ccccc1 [nimesulid]	1.00 fold	0.89 fold	0.90 fold	toxic	0.91 fold	0.84 fold			
NC(=O)Cc1cccc(C(=O)c2ccccc2)c1N [nepafenac]	1.02 fold	0.92 fold	0.98 fold	0.97 fold	1.09 fold	1.23 fold			
Cc1cnc(NC(=O)C2=C(O)c3ccccc3S(=O)(=O)N2C)s1 [meloxicam]							0.23 ± 0.02	84 ± 17 µM	0.1 ± 0.1
